This is an account of results in the supplement of paper PMC8671470.

Common to all, as to conditions: 72 h
The test system of one assay is THP-1. The procedure, abridged: (§1)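 Fifteen myeloid leukaemia cell lines were seeded in RPMI 1640 at a density titrated to the linear growth range. Each line went into 384-well plates with compounds acoustically pre-printed at five tenfold doses from 1 to 10,000 nM, in duplicate, and was incubated for 72 h at 37 °C with 5% CO2. Luminescent ATP viability was normalised to vehicle and to a positive control at 10 µM. The IC50 came from four-parameter log-logistic dose–response fits.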

The next assay relates to BV-173. In a few lines:
as §1

Another assay relates to MV4-11. The procedure, abridged: as §1
A further assay has as its system HEL. The procedure, abridged: as §1
The next assay relates to ML-2. The procedure, abridged:
as §1

A further assay deals with K-562. In a few lines: as §1
In a further assay the test system is Mono-Mac-6. In a few lines:
as §1

The test system of the next assay is KG-1. In a few lines:
as §1

A further assay concerns KU-812. In a few lines: as §1
Another assay deals with SHI-1. In a few lines:
as §1

Another assay relates to KCL-22. In a few lines: as §1
The next assay deals with NOMO-1. In a few lines: as §1
The test system of a further assay is MOLM-13. In a few lines: as §1
A further assay concerns LAMA-84. In a few lines: as §1
Assay [1] has as its system HL-60. The procedure, abridged:
as §1

Assay [2] concerns HL-60. Kind of assay: cell viability (% survival relative to DMSO control); higher = less cytotoxic. The procedure, abridged: (§2)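 HL-60 cells in RPMI 1640 with 10% FBS were rescreened against the full library on 384-well plates at five tenfold concentrations, 1–10,000 nM, in duplicate. Each screen was run with DMSO or 100 nM of one of three metabolic inhibitors, for 72 h at 37 °C, 5% CO2. Viability was read by CellTiter-Glo and normalised to DMSO and 10 μM proteasome-inhibitor wells. Where given, area under the curve came from four-parameter log-logistic fits (drc, PharmacoGx).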

In assay [3] the test system is HL-60. Kind of assay: area under dose-response curve (viability, 1 nM-10 uM) (fraction (0-1)); higher = more sensitive. In a few lines:
as §2

Where [4] appears, read: 0.001 µM, co-treatment: AZD3965 100 nM.
The mark [5] stands for this setting: 0.001 µM, co-treatment: DMSO vehicle.
Where [6] appears, read: 0.001 µM, co-treatment: GSK2194069 100 nM.
[7] abbreviates: 0.001 µM, co-treatment: pictilisib 100 nM.
The mark [8] stands for this setting: 0.01 µM, co-treatment: AZD3965 100 nM.
Where [9] appears, read: 0.01 µM, co-treatment: DMSO vehicle.
Where [10] appears, read: 0.01 µM, co-treatment: GSK2194069 100 nM.
Where [11] appears, read: 0.01 µM, co-treatment: pictilisib 100 nM.
Where [12] appears, read: 0.1 µM, co-treatment: AZD3965 100 nM.
Where [13] appears, read: 0.1 µM, co-treatment: DMSO vehicle.
The mark [14] stands for this setting: 0.1 µM, co-treatment: GSK2194069 100 nM.
Where [15] appears, read: 0.1 µM, co-treatment: pictilisib 100 nM.
[16] abbreviates: 1 µM, co-treatment: AZD3965 100 nM.
Where [17] appears, read: 1 µM, co-treatment: DMSO vehicle.
Where [18] appears, read: 1 µM, co-treatment: GSK2194069 100 nM.
Setting [19] is: 1 µM, co-treatment: pictilisib 100 nM.
[20] abbreviates: 10 µM, co-treatment: AZD3965 100 nM.
[21] abbreviates: 10 µM, co-treatment: DMSO vehicle.
[22] abbreviates: 10 µM, co-treatment: GSK2194069 100 nM.
The mark [23] stands for this setting: 10 µM, co-treatment: pictilisib 100 nM.
Setting [24] is: co-treatment: GSK2194069 100 nM.
[25] abbreviates: co-treatment: pictilisib 100 nM.

± gives the standard deviation of the averaged measurements.

In the case of `CC(C(=O)O)c1cccc(C(=O)c2ccccc2)c1` (configuration not stated) [Ketoprofen], the “IC50 (cell viability)” value in the assay on THP-1, in the assay on BV-173, in the assay on MV4-11, with HEL, with ML-2 and in the assay on K-562 was greater than 10 µM throughout. For the same compound, the “IC50 (cell viability)” value in the assay with Mono-Mac-6, in the assay on KG-1, in the assay with KU-812, in the assay with SHI-1, in the assay on KCL-22 and in the assay on NOMO-1 was greater than 10 µM throughout. In addition, the “IC50 (cell viability)” value in the assay on MOLM-13, with LAMA-84 and with HL-60 [1] was greater than 10 µM each time.

Turning to `CC(C(=O)O)C(=O)O` [methylmalonate], the cell viability – broadly, a read-out of living cells in per cent, often relative to untreated cells – was determined as 100 ± 1.6% in the assay on HL-60 [2] (setting [4]); 97.43 ± 0.96% with HL-60 [2] (setting [5]); 101 ± 5.3% in the assay on HL-60 [2] (setting [6]); 105 ± 14% with HL-60 [2] (setting [7]); 96.1 ± 3% in the assay with HL-60 [2] (setting [8]); 99.6 ± 0.36% in the assay with HL-60 [2] (setting [9]). For the same compound, the cell viability in the assay with HL-60 [2] (setting [10]) was 97.9 ± 8.9%; with HL-60 [2] (setting [11]), 103 ± 6.5%; in the assay on HL-60 [2] (setting [12]), 81.8 ± 19%; with HL-60 [2] (setting [13]), 96.753 ± 0.087%; in the assay on HL-60 [2] (setting [14]) it was 95.2 ± 10%; in the assay on HL-60 [2] (setting [15]) it was 87.7 ± 20%. For the same compound, the cell viability was 107 ± 12% in the assay with HL-60 [2] (setting [16]); 100.6 ± 0.51% in the assay on HL-60 [2] (setting [17]); 106 ± 2.2% in the assay on HL-60 [2] (setting [18]); 84.2 ± 32% in the assay on HL-60 [2] (setting [19]); 98.6 ± 5.8% in the assay with HL-60 [2] (setting [20]); 99 ± 3.8% in the assay with HL-60 [2] (setting [21]). In addition, the figures for the cell viability with HL-60 [2] (setting [22]) and in the assay on HL-60 [2] (setting [23]) were 103.3 ± 0.24% and 108.9 ± 0.38%, respectively. For the same compound, the “area under dose-response curve” value in the assay on HL-60 [3] (co-treatment: AZD3965 100 nM), in the assay with HL-60 [3] (co-treatment: DMSO vehicle), with HL-60 [3] (setting [24]) and in the assay with HL-60 [3] (setting [25]) was less than 0.0301 throughout.

For `Cc1c2c(=O)n(-c3ccccc3Cl)[nH]c2cc(=O)n1Cc1ccccn1`, the cell viability in the assay on HL-60 [2] (setting [4]) came to 103 ± 2.9%; in the assay on HL-60 [2] (setting [5]), 103 ± 1.8%; with HL-60 [2] (setting [6]), 101 ± 3.2%; in the assay on HL-60 [2] (setting [7]), 96.69 ± 0.41%; in the assay with HL-60 [2] (setting [8]) it was 103 ± 4.3%; with HL-60 [2] (setting [9]), 103 ± 1.3%. The cell viability in the assay with HL-60 [2] (setting [10]) turned out to be 105 ± 5%; in the assay on HL-60 [2] (setting [11]), 103 ± 18%; in the assay with HL-60 [2] (setting [12]) it was 96.9 ± 3.3%; in the assay on HL-60 [2] (setting [13]), 99.6 ± 8.5%; in the assay with HL-60 [2] (setting [14]) it was 98.8 ± 5.7%; in the assay on HL-60 [2] (setting [15]), 100 ± 1.9%. In addition, the cell viability in the assay on HL-60 [2] (setting [16]) amounted to 98.6 ± 5.4%; in the assay with HL-60 [2] (setting [17]), 99.25 ± 0.98%; in the assay on HL-60 [2] (setting [18]), 101 ± 6.8%; in the assay with HL-60 [2] (setting [19]) it was 95.2 ± 3.8%; in the assay on HL-60 [2] (setting [20]), 96.6 ± 4%; with HL-60 [2] (setting [21]), 101 ± 8.3%. Further, the cell viability came out at 96.5 ± 3.9% in the assay with HL-60 [2] (setting [22]) and 94.8 ± 2.1% in the assay on HL-60 [2] (setting [23]). Moreover, the “area under dose-response curve” value with HL-60 [3] (co-treatment: AZD3965 100 nM), with HL-60 [3] (co-treatment: DMSO vehicle), in the assay on HL-60 [3] (setting [24]) and in the assay on HL-60 [3] (setting [25]) was less than 0.0301 in each case.

With `Clc1ccccc1CN1CCc2sccc2C1` [Ticlopidine], the “IC50 (cell viability)” value with THP-1, with BV-173, with MV4-11, with HEL, with ML-2 and with K-562 was greater than 10 µM each time. The “IC50 (cell viability)” value in the assay with Mono-Mac-6, in the assay with KG-1, with KU-812, in the assay with SHI-1, with KCL-22 and in the assay on NOMO-1 was greater than 10 µM each time. The “IC50 (cell viability)” value with MOLM-13, in the assay with LAMA-84 and in the assay with HL-60 [1] was greater than 10 µM throughout.

As for `O=C(Nc1ccccc1)c1cc([N+](=O)[O-])ccc1Cl` [GW-9662], the cell viability in the assay on HL-60 [2] (setting [4]) was 104 ± 4.8%; in the assay with HL-60 [2] (setting [5]) it was 100.8 ± 0.15%; in the assay on HL-60 [2] (setting [6]) it was 99.4 ± 3.7%; in the assay on HL-60 [2] (setting [7]) it was 106.5 ± 0.24%; with HL-60 [2] (setting [8]) it was 97.15 ± 0.3%; with HL-60 [2] (setting [9]) it was 103.27 ± 0.069%. The cell viability worked out at 92.6 ± 11% in the assay on HL-60 [2] (setting [10]); 96.8 ± 5.1% in the assay on HL-60 [2] (setting [11]); 102 ± 3.9% with HL-60 [2] (setting [12]); 100 ± 2.6% in the assay with HL-60 [2] (setting [13]); 98.7 ± 5.5% with HL-60 [2] (setting [14]); 97.9 ± 2.5% in the assay with HL-60 [2] (setting [15]). In addition, the cell viability is 100 ± 2.4% with HL-60 [2] (setting [16]); 100.8 ± 0.79% in the assay on HL-60 [2] (setting [17]); 96.1 ± 1.9% with HL-60 [2] (setting [18]); 99.3 ± 5.7% with HL-60 [2] (setting [19]); 90.1 ± 20% in the assay on HL-60 [2] (setting [20]); 95.6 ± 2.1% with HL-60 [2] (setting [21]). The cell viability with HL-60 [2] (setting [22]) worked out at 87.2 ± 8.5%; in the assay on HL-60 [2] (setting [23]), 94.4 ± 16%. The “area under dose-response curve” value with HL-60 [3] (co-treatment: AZD3965 100 nM), in the assay on HL-60 [3] (co-treatment: DMSO vehicle), in the assay with HL-60 [3] (setting [24]) and with HL-60 [3] (setting [25]) was less than 0.0301 in each case.
